Assays:
[1] = Biodistribution of N-retinylamides and retinylamine derivatives in liver and eye after oral gavage; format: in vivo, mouse; conditions: for original drug detected in the eye: 2 h and 16 h
Procedure: Female C57BL mice (4-week-old) were randomly divided into seven groups, six treated groups and one control group. Free Ret-NH2 (3.5 μmol per mouse, dissolved in DMSO and dispersed in vegetable oil) or retinylamine derivatives (Ret-Gly, Ret-L-Val-Gly, Ret-L-Phe, Ret-L-Leu, Ret-L-Val, 3.5 μmol per mouse, dissolved in DMSO and dispersed in vegetable oil) was administered by gastric gavage, control group was only gavaged vegetable oil. Then at each predetermined time point (2 and 16 h after drug administration), 3 mice were sacrificed. The liver and eye balls were collected to determine tissue N-retinylamide content for pharmacokinetic analysis. A portion of the liver tissue (0.3-0.5 g) was weighed, homogenized in 2 mL 1:1 ethanol:PBS solution and the eye balls were similarly processed (eye balls were combined for 3 mice). N-Retinylamides were extracted in 4 mL hexane, concentrated, and reconstituted to a 300 μL volume for liver (200 μL for eye). Normal-phase HPLC (Agilent-Zorbax SIL; 5 μm; 4.5×250 mm; flow rate of 1.4 mL/min; 80:20 hexane:ethyl acetate (v:v); detection at 325 nm) was utilized to determine N-retinylamide concentration in these tissues.
Female C57BL mice (4-week-old) were randomly divided into seven groups, six treated groups and one control group. Free Ret-NH2 (3.5 μmol per mouse, dissolved in DMSO and dispersed in vegetable oil) or retinylamine derivative (Ret-Gly, Ret-L-Val-Gly, Ret-L-Phe, Ret-L-Leu, Ret-L-Val, 3.5 μmol per mouse, dissolved in DMSO and dispersed in vegetable oil) was administered by gastric gavage, control group was only gavaged vegetable oil. Then at each predetermined time point (2 and 16 h after drug administration), 3 mice were sacrificed. The liver and eye balls were collected to determine tissue drug content for pharmacokinetic analysis. A portion of the liver tissue (0.3-0.5 g) was weighed, homogenized in 2 mL 1:1 ethanol:PBS solution and the eye balls were similarly processed. Retinylamine or its derivative was extracted in 4 mL ethyl acetate, concentrated, and reconstituted to a 300 μL volume for liver (200 μL for eye). Reverse-phase HPLC (analytical C18 reverse column; 5 μm; 250 mm×4.6 mm; flow rate of 1.0 mL/min; 60:40 acetonitrile:H2O (v:v) with 0.05% trifluoroacetic acid; detection at 325 nm) was utilized to determine retinylamine or its derivative in these tissues. […]
No N-retinylamides were detected in the eye at 2 h for all treated mice. The concentration of N-retinylamides in the liver of all treated mice increased at 16 h post-treatment. […] The concentrations of the original drugs were also determined in the liver and eye at 2 h and 16 h (FIGS. 7C, D). All tested drugs, including Ret-NH2, were detected in liver and their concentrations decreased from 2 h to 16 h.

RPE65 = RPE65 (Bos taurus, UniProt Q28175); assay: Retinoid isomerase activity in RPE microsomes (11-cis-retinol production); format: biochemical, Bovine; conditions: 0.5 to 10 μM compound, 10 μM all-trans-retinol, 1 h
Chain of RPE65 (Q28175 whole entry): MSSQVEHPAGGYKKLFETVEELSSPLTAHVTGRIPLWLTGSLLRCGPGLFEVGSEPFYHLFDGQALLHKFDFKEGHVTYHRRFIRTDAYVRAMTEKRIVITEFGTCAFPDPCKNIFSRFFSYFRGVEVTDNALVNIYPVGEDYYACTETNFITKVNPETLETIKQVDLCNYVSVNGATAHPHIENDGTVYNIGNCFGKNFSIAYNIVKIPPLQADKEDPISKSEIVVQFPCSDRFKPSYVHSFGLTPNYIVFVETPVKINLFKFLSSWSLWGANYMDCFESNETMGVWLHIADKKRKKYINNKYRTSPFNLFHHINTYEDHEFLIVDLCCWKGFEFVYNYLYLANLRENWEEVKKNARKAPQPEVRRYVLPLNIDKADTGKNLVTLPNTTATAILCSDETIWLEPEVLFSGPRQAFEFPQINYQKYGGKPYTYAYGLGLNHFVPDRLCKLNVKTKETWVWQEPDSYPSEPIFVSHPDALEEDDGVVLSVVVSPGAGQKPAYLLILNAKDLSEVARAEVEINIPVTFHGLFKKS
Procedure: To destroy endogenous retinoids, 200-μl aliquots of RPE microsomes placed in a quartz cuvette were irradiated for 5 min at 0° C. with a ChromatoUVE transilluminator (model TM-15; UVP).
All assays were performed under dim red light. 2 μl of the synthesized retinylamine derivatives (RF and RVG) (DMF, 0.5-10 mM) was added into 10 mM Bis-Tris propane buffer (pH 7.4) containing 150 μg RPE microsomes, 1% BSA, 1 mM disodium pyrophosphate and 20 μM apo Retinaldehyde-binding protein 1 (CRALBP). The resulting mixture was pre-incubated at room temperature for 5 min. Then 1 μl all-trans-retinol (DMF, 20 mM) was added. The resulting mixture was incubated at 37° C. for 1 h. Reaction was quenched by addition of 300 μl methanol, and the products were extracted with 300 μl hexanes. Production of 11-cis-retinol was quantified by normal phase HPLC with 10% (v/v) ethyl acetate in hexanes as eluent. Flow rate was 1.4 ml·min^−1 Retinoids were detected by monitoring absorbance at 325 nm and quantified base on a standard curve reflecting relation between amount of 11-cis-retinol and area under the corresponding chromatography peak.

[2] = All-trans-retinal Schiff base formation; conditions: 0.2 mM drug with all-trans-retinal in ethanol 2 h at room temperature
Procedure: Incubate Ret-NH2 and retinylamine derivatives RVG, RF (0.2 mM) with all-trans-retinal (2 mM) in ethanol 2 h at room temperature, retinyl imines separated by reverse phase HPLC were identified on the basis of both their characteristic UV-vis spectra upon protonation and spectra obtained by mass spectrometry (MS). HPLC condition: analytical C18 reverse column; 5 μm; 250 mm×4.6 mm; flow rate of 0.5 mL/min; mobile phase acetonitrile:H2O (v:v) with 0.05% trifluoroacetic acid (0-15 min acetonitrile from 50% to 100%, 15-30 min 100% acetonitrile); detection at 325 nm.

[3] = 3.5 μmol per mouse oral, C57BL mice, 16 h

Row | original drug detected in the eye ([1]; 3.5 μmol per mouse oral) | N-retinylamides in the eye [1, 3] | Structure (SMILES) | liver concentration of N-retinylamides [1, 3] | inhibition of RPE65 on 11-cis-retinol production (RPE65) | Schiff base formation with atRAL [2] | metabolism in the eye ([1]; conclusion from biodistribution at 2 h and 16 h)
1 | only detected at 16 h | no detectable N-retinylamides in the eye | CC1=C(/C=C/C(C)=C/C=C/C(C)=C/CNC(=O)[C@@H](NC(=O)CN)C(C)C)C(C)(C)CCC1 [RVG, (S)-2-(2-aminoacetamido)-N-((2E,4E,6E,8E)-3,7-dimethyl-9-(2,6,6-trimethylcyclohex-1-en-1-yl)nona-2,4,6,8-tetraen-1-yl)-3-methylbutanamide] | lower liver concentration of N-retinylamides than RF and RL | did not show significant inhibition | able to form Schiff base with atRAL | 
2 | No free Ret-NH2 was detected in the eye |  | CC1=C(/C=C/C(C)=C/C=C/C(C)=C/CN)C(C)(C)CCC1 [Ret-NH2, (2E,4E,6E,8E)-3,7-dimethyl-9-(2,6,6-trimethylcyclohex-1-en-1-yl)nona-2,4,6,8-tetraen-1-amine] |  | concentration dependent inhibition of RPE65 | able to form Schiff base with atRAL | 
3 | only detected at 2 h |  | CC1=C(/C=C/C(C)=C/C=C/C(C)=C/CNC(=O)[C@@H](N)Cc2ccccc2)C(C)(C)CCC1 [RF, (S)-2-amino-N-((2E,4E,6E,8E)-3,7-dimethyl-9-(2,6,6-trimethylcyclohex-1-en-1-yl)nona-2,4,6,8-tetraen-1-yl)-3-phenylpropanamide] |  | partial inhibition, but not in a concentration dependent manner | able to form Schiff base with atRAL | rapidly metabolized into inactive N-retinylamides in the eye

Source: patent US10471118B2, “Retinylamine derivitives for treatment of ocular disorders” (CASE WESTERN RESERVE UNIVERSITY, priority 2014, dated 2019)
